{"source": "patent US20230018765A1", "about": "“A 19-NOR C3,3-DISUBSTITUTED C21-N-PYRAZOLYL STEROID AND METHODS OF USE THEREOF” (Sage Therapeutics, Inc., priority 2019, published 2023)", "key": {"[1]": {"system": "subjects with MDD", "assay": "HAM-D course after a Compound 1 treatment cycle (response/remission at Day 15, HAM-D at Day 42)", "format": "in vivo, human"}, "[2]": {"system": "adult patients diagnosed with MDD (MADRS total score ≥32 and a HAM-D total score ≥22)", "assay": "double-blind, randomized placebo-controlled Phase 3 study of Compound 1 in Major Depressive Disorder (efficacy by HAM-D total score, safety and tolerability)", "format": "in vivo, human", "conditions": "for overall incidence of patients who experienced AEs: 14-day treatment period and 28-day follow up, placebo 48.9%; for AE incidence: Fatigue: placebo 2.6%; for AE incidence: Sedation / subjects having treatment emergent AEs leading to study drug discontinuation: placebo 3.2%; for AE incidence: Dizziness: placebo 3.7%; for AE incidence: Somnolence: placebo 4.2%; for AE incidence: Nausea: placebo 4.7%; for AE incidence: Diarrhea: placebo 5.3%; for AE incidence: Headache: treatment period and 28-day follow up, placebo 7.4%", "experimental": "Compound 1 was evaluated in a double-blind, randomized placebo-controlled Phase 3 study in Major Depressive Disorder (MDD). The evaluated the efficacy, safety and pharmacokinetics of Compound 1 in adult patients diagnosed with MDD (MADRS total score ≥32 and a HAM-D total score ≥22).\nCompound 1 was administered to a patient, either in 20 mg daily doses once a day for 14 days or 30 mg once a day for 14 days."}, "[3]": {"system": "subjects with MDD", "assay": "Phase 2 study in subjects with MDD / previous clinical trials of Compound 1"}, "[4]": {"system": "GABAA receptors", "assay": "modulation of GABAA receptors", "conditions": "synaptic and extrasynaptic GABAA receptors"}, "[5]": {"conditions": "among subjects achieving remission or response at Day 15, Day 42"}}, "data": [{"smiles": "C[C@@]1(O)CC[C@H]2[C@H](CC[C@@H]3[C@@H]2CC[C@]2(C)[C@@H](C(=O)Cn4cc(C#N)cn4)CC[C@@H]32)C1", "note": "[Compound 1]", "values": [{"measurement": "subjects achieving remission or response at Day 15", "setting": "[1]; Day 15", "result": 78.6, "unit": "%"}, {"measurement": "subjects with HAM-D≥22 at Day 42", "setting": "[1]; [5]", "result": 6.1, "unit": "%"}, {"measurement": "subjects with a HAM-D score of 16 to 21 at Day 42", "setting": "[1]; [5]", "result": 18.2, "unit": "%"}, {"measurement": "separation from placebo (HAM-D) of the 20 mg dose", "setting": "[2]; 20 mg once a day for 14 days", "result": "did not separate from placebo"}, {"measurement": "tolerability in the trial", "setting": "[2]; 20 mg or 30 mg once a day for 14 days", "result": "generally well tolerated"}, {"measurement": "overall incidence of patients who experienced AEs", "setting": "[2]; 20 mg", "result": 50.0, "unit": "%"}, {"measurement": "patients who reported SAEs during follow-up", "setting": "[2]; 20 mg, SAEs related to cocaine ingestion, Day 39", "result": "one"}, {"measurement": "AE incidence: Fatigue", "setting": "[2]; 20 mg", "result": 1.6, "unit": "%"}, {"measurement": "AE incidence: Sedation", "setting": "[2]; 20 mg", "result": 5.9, "unit": "%"}, {"measurement": "subjects having treatment emergent AEs leading to study drug discontinuation", "setting": "[2]; 20 mg", "result": 1.6, "unit": "%"}, {"measurement": "AE incidence: Dizziness", "setting": "[2]; 20 mg", "result": 7.4, "unit": "%"}, {"measurement": "AE incidence: Somnolence", "setting": "[2]; 20 mg", "result": 5.9, "unit": "%"}, {"measurement": "AE incidence: Nausea", "setting": "[2]; 20 mg", "result": 5.3, "unit": "%"}, {"measurement": "AE incidence: Diarrhea", "setting": "[2]; 20 mg", "result": 5.9, "unit": "%"}, {"measurement": "AE incidence: Headache", "setting": "[2]; 20 mg", "result": 11.2, "unit": "%"}, {"measurement": "onset of effect (HAM-D vs placebo)", "setting": "[2]; 30 mg (n=166)", "result": "beginning at Day 3"}, {"measurement": "LS Mean Difference from placebo, HAM-D total score, Day 3", "setting": "[2]; 30 mg (n=166) vs placebo (n=157), Day 3, p=0.016", "result": "−1.6"}, {"measurement": "AE incidence: Diarrhea", "setting": "[2]; 30 mg (printed 30 rug)", "result": 6.3, "unit": "%"}, {"measurement": "reduction in depressive symptoms in the HAM-D total score at Day 15 (primary endpoint)", "setting": "[2]; 30 mg once a day for 14 days, Day 15, placebo 11.2", "result": 12.6}, {"measurement": "LS Mean Difference, HAM-D total score at Day 15, patients with measurable drug concentrations and HAM-D≥24", "setting": "[2]; 30 mg vs placebo, post-hoc, p=0.017", "result": "−2.6"}, {"measurement": "LS Mean Difference, HAM-D total score at Day 15, patients with HAM-D≥24", "setting": "[2]; 30 mg vs placebo, post-hoc, p=0.032", "result": "−2.3"}, {"measurement": "LS Mean Difference, HAM-D total score at Day 15, patients with measurable drug concentrations", "setting": "[2]; 30 mg vs placebo, post-hoc, p=0.048", "result": "−1.8"}, {"measurement": "overall incidence of patients who experienced AEs", "setting": "[2]; 30 mg", "result": 54.2, "unit": "%"}, {"measurement": "LS Mean Difference from placebo, HAM-D total score, Day 8", "setting": "[2]; 30 mg, Day 8, p=0.008", "result": "−2.1"}, {"measurement": "LS Mean Difference from placebo, HAM-D total score, Day 12", "setting": "[2]; 30 mg, Day 12, p=0.018", "result": "−2.1"}, {"measurement": "LS Mean Difference from placebo, HAM-D total score, Day 15", "setting": "[2]; 30 mg, Day 15, p=0.115", "result": "−1.4"}, {"measurement": "LS Mean Difference from placebo, HAM-D total score, Day 42", "setting": "[2]; 30 mg, Day 42, p=0.807", "result": "−0.5"}, {"measurement": "Change from baseline in HAM-D total score at Day 42", "setting": "[2]; 30 mg, Day 42, placebo −11.7", "result": "−11.9"}, {"measurement": "AE incidence: Fatigue", "setting": "[2]; 30 mg", "result": 6.8, "unit": "%"}, {"measurement": "AE incidence: Sedation", "setting": "[2]; 30 mg", "result": 4.7, "unit": "%"}, {"measurement": "subjects having treatment emergent AEs leading to study drug discontinuation", "setting": "[2]; 30 mg", "result": 2.1, "unit": "%"}, {"measurement": "AE incidence: Dizziness", "setting": "[2]; 30 mg", "result": 5.7, "unit": "%"}, {"measurement": "AE incidence: Somnolence", "setting": "[2]; 30 mg", "result": 6.8, "unit": "%"}, {"measurement": "AE incidence: Nausea", "setting": "[2]; 30 mg", "result": 3.6, "unit": "%"}, {"measurement": "Change from baseline in HAM-D total score at Day 15, patients with HAM-D≥24", "setting": "[2]; 30 mg, post-hoc, n=124, placebo −11.4", "result": "−13.7"}, {"measurement": "Change from baseline in HAM-D total score at Day 15, patients with measurable drug concentrations", "setting": "[2]; 30 mg, post-hoc, n=151, placebo −11.2", "result": "−13.0"}, {"measurement": "Change from baseline in HAM-D total score at Day 15, patients with measurable drug concentrations and HAM-D≥24", "setting": "[2]; 30 mg, post-hoc, placebo −11.4", "result": "−14.0"}, {"measurement": "patients who experienced serious adverse events (SAEs) during treatment", "setting": "[2]; 30 mg, suicide attempt Day 5, bile duct stone after Day 2", "result": "Two"}, {"measurement": "patients who reported SAEs during follow-up", "setting": "[2]; 30 mg, syncope and associated injuries, Day 28", "result": "one"}, {"measurement": "AE incidence: Headache", "setting": "[2]; 30 mg", "result": 6.3, "unit": "%"}, {"measurement": "durability of improvements in depressive symptoms, double-blind portion", "setting": "[2]; all treatment groups, through Day 42", "result": "sustained in all treatment groups through Day 42"}, {"measurement": "AEs of loss of consciousness", "setting": "[2]; any group", "result": "no ABs of loss of consciousness"}, {"measurement": "suicidal ideation or suicidal behavior by Columbia Suicide Severity Rating Scale (C-SSRS)", "setting": "[2]; compared to baseline", "result": "no signal fir increased suicidal ideation or suicidal behavior"}, {"measurement": "durability of improvement in depressive symptoms, long-term follow-up", "setting": "[2]; patients who completed long-term follow-up up to 6 months, preliminary data", "result": "maintenance of improvement in depressive symptoms"}, {"measurement": "efficacy in a Phase 2 study in subjects with MDD", "setting": "[3]; 30 mg per day", "result": "efficacious"}, {"measurement": "tolerability in a Phase 2 study in subjects with MDD", "setting": "[3]; 30 mg per day", "result": "well-tolerated"}, {"measurement": "adverse effect in previous clinical trials, morning administration", "setting": "[3]; administered in the morning", "result": "sedation/somnolence observed"}, {"measurement": "tolerability in previous clinical trials, evening administration", "setting": "[3]; given in the evening", "result": "improved tolerability"}, {"measurement": "mode of action at GABAA receptors", "setting": "[4]", "result": "positive allosteric modulator of GABAA receptors"}]}]}
